Converted amounts (≈) assume the structure as drawn. The source made the active and inactive calls. The rule behind the calls is not given here.
Legend:
[1] = target: Protein cereblon/Bromodomain-containing protein 4/DNA damage-binding protein 1 (Homo sapiens) (UniProt O60885+Q96SW2+Q16531); experiment: Binding affinity to his-tagged CRBN/DDB1/GST-tagged BRD4 (49 to 170 residues)(unknown origin) assessed as ternary complex formation (AUC) incubated for 1 hr by luminescence based Alphascreen assay; type: protein assay
[2] = target: T1, Protein cereblon/Bromodomain-containing protein 4 (Homo sapiens, UniProt O60885+Q96SW2); experiment: PROTAC activity at CRBN/Hibit-tagged BRD4 (unknown origin) expressed in HEK293 cells co-expressing LgBiT assessed as degradation of BRD4 incubated for 24 hrs by […] glo-max assay relative to control; type: cell-based
[3] = tested on: HD-MB03; experiment: Cytotoxicity against human HD-MB03 cells assessed as reduction in cell viability incubated for 72 hrs by cell-titer glo assay; type: functional, cell-based; conditions: HD-MB03, 72 h
[4] = tested on: MV4-11; experiment: Cytotoxicity against human MV4-11 cells assessed as reduction in cell viability incubated for 72 hrs by cell-titer glo assay; type: functional, cell-based; conditions: MV4-11, 72 h
[5] = target: T1, Protein cereblon/Bromodomain-containing protein 4; experiment: PROTAC activity at CRBN/Hibit-tagged BRD4 (unknown origin) expressed in HEK293 cells co-expressing LgBiT assessed as degradation rate incubated for 24 hrs by […] glo-max assay; type: cell-based
[6] = Kinetic aqueous solubility of the compound at pH 7.4; type: physicochemical; conditions: read-out: Kinetic_solubility
[7] = tested on: HEK293; experiment: Cytotoxicity against HEK293 cells expressing LgBiT fused HiBiT-BRD2 measured after 24 hrs by cell titer-glo assay; type: toxicity, cell-based; conditions: human, hek293, 24 h
[8] = target: T1, Protein cereblon/Bromodomain-containing protein 4; experiment: PROTAC activity at CRBN/Hibit-tagged BRD4 (unknown origin) expressed in HEK293 cells co-expressing LgBiT assessed as degradation of BRD4 incubated for 24 hrs by […] glo-max assay; type: cell-based
[9] = Metabolic stability in mouse liver microsomes assessed as half life; type: ADME, Microsome; conditions: liver microsomes
[10] = Effect on CCND3 level in human MV4-11 cells assessed as fold change at 100 nM measured after 4 hrs; type: functional
[11] = Effect on BRD2 level in human MV4-11 cells assessed as fold change at 100 nM measured after 4 hrs; type: functional
[12] = Effect on BRD4 level in human MV4-11 cells assessed as fold change at 100 nM measured after 4 hrs; type: functional
[13] = Effect on NOP53 level in human MV4-11 cells assessed as fold change at 100 nM measured after 4 hrs; type: functional
[14] = Effect on CCNF level in human MV4-11 cells assessed as fold change at 100 nM measured after 4 hrs; type: functional
[15] = Effect on RNF166 level in human MV4-11 cells assessed as fold change at 100 nM measured after 4 hrs; type: functional
[16] = target: T2, Protein cereblon/Bromodomain-containing protein 2 (Homo sapiens) (UniProt P25440+Q96SW2); experiment: PROTAC activity at CRBN/Hibit-tagged CRISPR BRD2 (unknown origin) expressed in HEK293 cells coexpressing LgBiT assessed as degradation of BRD2 by […] glo-max assay; type: cell-based
[17] = target: T1, Protein cereblon/Bromodomain-containing protein 4; experiment: PROTAC activity at CRBN/Hibit-tagged CRISPR BRD4 (unknown origin) expressed in HEK293 cells co-expressing LgBiT assessed as degradation of BRD4 by […] glo-max assay; type: cell-based
[18] = Effect on CDC42EP3 level in human MV4-11 cells assessed as fold change at 100 nM measured after 4 hrs; type: functional
[19] = Effect on FYTTD1 level in human MV4-11 cells assessed as fold change at 100 nM measured after 4 hrs; type: functional
[20] = Effect on PLK1 level in human MV4-11 cells assessed as fold change at 100 nM measured after 4 hrs; type: functional
[21] = Effect on AURKA level in human MV4-11 cells assessed as fold change at 100 nM measured after 4 hrs; type: functional
[22] = Stability in mouse plasma assessed as half life by UPLC-MS/MS analysis; type: ADME, cell-free
[23] = Effect on MCL1 level in human MV4-11 cells assessed as fold change at 100 nM measured after 4 hrs; type: functional
[24] = target: Protein cereblon/Bromodomain-containing protein 3 (Homo sapiens) (UniProt Q15059+Q96SW2); experiment: PROTAC activity at CRBN/Hibit-tagged CRISPR BRD3 (unknown origin) expressed in HEK293 cells co-expressing LgBiT assessed as degradation of BRD3 by […] glo-max assay; type: cell-based
[25] = Effect on PLAU level in human MV4-11 cells assessed as fold change at 100 nM measured after 4 hrs; type: functional
[26] = Effect on FGL2 level in human MV4-11 cells assessed as fold change at 100 nM measured after 4 hrs; type: functional
[27] = Effect on BRD3 level in human MV4-11 cells assessed as fold change at 100 nM measured after 4 hrs; type: functional
[28] = Effect on ZFP36L2 level in human MV4-11 cells assessed as fold change at 100 nM measured after 4 hrs; type: functional
[29] = Effect on NSA2 level in human MV4-11 cells assessed as fold change at 100 nM measured after 4 hrs; type: functional
[30] = Effect on TP53 level in human MV4-11 cells assessed as fold change at 100 nM measured after 4 hrs; type: functional
[31] = Permeability in MDCK-II cells incubated for 1 hr by UPLC/MS/UV analysis; type: ADME, cell-based, Canis lupus familiaris; conditions: dog, read-out: permeability
[32] = Effect on ZBTB21 level in human MV4-11 cells assessed as fold change at 100 nM measured after 4 hrs; type: functional
[33] = Effect on MYC level in human MV4-11 cells assessed as fold change at 100 nM measured after 4 hrs; type: functional
[34] = target: T2, Protein cereblon/Bromodomain-containing protein 2 (Homo sapiens); experiment: PROTAC activity at CRBN/Hibit-tagged CRISPR BRD2 (unknown origin) expressed in HEK293 cells coexpressing LgBiT assessed as degradation of BRD2 by […] glo-max assay relative to control; type: cell-based

Structure (SMILES)	Activity [1]	Emax [2] [%]	IC50 [3] [nM]	IC50 [4] [nM]	Activity [5] [fRLU/hr]	solubility kinetic [6] [µM]	Activity [7]	DC50 [8] [nM]	half-life [9] [h]	fold change (FC) [10]	fold change (FC) [11]	fold change (FC) [12]	fold change (FC) [13]	fold change (FC) [14]	fold change (FC) [15]	fold change (FC) [18]	fold change (FC) [19]	fold change (FC) [20]	fold change (FC) [21]	half-life [22] [h]	other results
Cc1sc2c(c1C)C(c1ccc(Cl)cc1)=N[C@@H](CC(=O)N1CCN(c3cccc(C4CCC(=O)NC4=O)c3)CC1)c1nnc(C)n1-2 (stereo partly drawn)	Active; Lower Ternary Complex Auc Formation Observed	12.3	90.7	6.36	0.005	21.5 (≈ 14.1 µg/mL)	Non-toxic	> 10000	0.29	–	–	–	–	–	–	–	–	–	–	–	–
Cc1sc2c(c1C)C(c1ccc(Cl)cc1)=N[C@@H](CC(=O)N1CCN(c3ccc(C4CCC(=O)NC4=O)cc3)CC1)c1nnc(C)n1-2 (stereo partly drawn)	Active; Lower Ternary Complex Auc Formation Observed	10.6	250	18.6	0.005	17 (≈ 11.2 µg/mL)	Non-toxic	> 10000	0.2	–	–	–	–	–	–	–	–	–	–	–	–
Cc1sc2c(c1C)C(c1ccc(Cl)cc1)=N[C@@H](CC(=O)N1CCC(CN3CCN(c4cc5c(cc4F)C(=O)N(C4CCC(=O)NC4=O)C5=O)CC3)CC1)c1nnc(C)n1-2 (stereo partly drawn)	Active	88.6	84	3.23	0.143	73.4 (≈ 61.7 µg/mL)	–	6.28	0.28	-0.96	-3.06	-3.89	-0.81	-1.86	-1.01	-1.41	-1.52	-0.75	-0.84	13.7	Activity [16]: Active; Less Potent Than Protac 8; Activity [17]: Active; Less Potent Than Protac 8; fold change (FC) [23]: -1.22; Activity [24]: Active; Less Potent Than Protac 8; fold change (FC) [25]: -1.14; fold change (FC) [26]: -1.1; fold change (FC) [27]: -3.93; fold change (FC) [28]: -1.09; fold change (FC) [29]: -1.04; fold change (FC) [30]: 1.82; Papp at 1 h [31]: 10.5 ×10⁻⁶ cm/s; fold change (FC) [32]: -0.02; fold change (FC) [33]: -2.29
Cc1sc2c(c1C)C(c1ccc(Cl)cc1)=N[C@@H](CC(=O)N1CC(COc3ccc(C4CCC(=O)NC4=O)cc3)C1)c1nnc(C)n1-2 (stereo partly drawn)	Active	40.4	38.2	3.1	0.07	21.3 (≈ 14 µg/mL)	Non-toxic	13.9	0.28	–	–	–	–	–	–	–	–	–	–	–	–
Cc1sc2c(c1C)C(c1ccc(Cl)cc1)=N[C@@H](CC(=O)N1CCC(CN3CCN(c4ccc(NC5CCC(=O)NC5=O)c(F)c4)CC3)CC1)c1nnc(C)n1-2 (stereo partly drawn)	Active	79.1	14.3	0.96	0.093	71.1 (≈ 55.9 µg/mL)	–	2.31	1.86	-0.82	-3.07	-3.41	-0.82	-1.62	-0.33	-1.17	-1.46	-0.65	-0.77	19.7	Activity [16]: Active; Less Potent Than Protac 8; Activity [17]: Active; Less Potent Than Protac 8; fold change (FC) [23]: -1.06; Activity [24]: Active; Less Potent Than Protac 8; fold change (FC) [25]: -1.06; fold change (FC) [26]: -0.95; fold change (FC) [27]: -3.87; fold change (FC) [28]: -0.97; fold change (FC) [29]: -1.03; fold change (FC) [30]: 1.71; fold change (FC) [32]: -0.09; fold change (FC) [33]: -2.23
Cc1sc2c(c1C)C(c1ccc(Cl)cc1)=N[C@@H](CC(=O)OC(C)(C)C)c1nnc(C)n1-2	–	–	–	–	–	–	–	–	0.23	–	–	–	–	–	–	–	–	–	–	–	–
Cc1sc2c(c1C)C(c1ccc(Cl)cc1)=N[C@@H](CC(=O)N1CCC(CN3CCN(c4ccc(NC5CCC(=O)NC5=O)cc4)CC3)CC1)c1nnc(C)n1-2 (stereo partly drawn)	Active	34.9	31.4	2.92	0.036	5.7 (≈ 4.38 µg/mL)	–	6.51	2.45	-0.56	-1.8	-2.24	-0.49	-0.38	-0.29	-1	-0.84	-0.56	-0.55	12.9	Activity [34]: < 50%; fold change (FC) [23]: -0.49; fold change (FC) [25]: -0.73; fold change (FC) [26]: -1.19; fold change (FC) [27]: -2.78; fold change (FC) [28]: -0.75; fold change (FC) [29]: -0.65; fold change (FC) [30]: 1.12; fold change (FC) [32]: -0.14; fold change (FC) [33]: -1.77
Cc1sc2c(c1C)C(c1ccc(Cl)cc1)=N[C@@H](CC(=O)NCCCOc1ccc(C3CCC(=O)NC3=O)cc1)c1nnc(C)n1-2 (stereo partly drawn)	Active	97.3	3.27	0.23	0.264	52.8 (≈ 34.1 µg/mL)	Non-toxic	0.75	0.16	–	–	–	–	–	–	–	–	–	–	–	–
Cc1sc2c(c1C)C(c1ccc(Cl)cc1)=N[C@@H](CC(=O)N1CCN(CC3CCN(c4ccc(C5CCC(=O)NC5=O)cc4)CC3)CC1)c1nnc(C)n1-2 (stereo partly drawn)	Active	96.9	1.96	0.22	0.245	64.5 (≈ 48.6 µg/mL)	Non-toxic	0.43	2.16	–	–	–	–	–	–	–	–	–	–	–	–
